Experimental data as given in publication PMC7156456, “Modulation of virus-induced NF-κB signaling by NEMO coiled coil mimics” (Nature Communications, 2020).

Experiments:
Serum stability assay = assay type: in vitro ADME; settings: 25% fetal bovine serum in RPMI, HPLC, read-out: initial peptide remained intact
Method: Time points of 30 min, 1 h, 2 h, 8 h, and 24 h were analyzed in triplicate. Each reaction was started upon addition of FBS to 60 μM peptide. Reactions were quenched at time points with addition of 100% EtOH, chilled on ice for 10 min, and pelleted at 11,752 × g. Supernatant was injected onto an Agilent analytical HPLC equipped with an XTerra RP18 3.5 µm 2.1 × 150 mm column (Part No. 186000410) and visualized at 220 nm. Integration of peak areas was used to determine percent degradation of peptides. Mass of cleaved products were determined using Matrix assisted laser desorption ion time of flight (MALDI-TOF) spectroscopy.

[1] = Thermal denaturation by circular dichroism; assay type: physicochemical; settings: 5–95 °C
Method: […] The spectra were averaged over 4 scans with the background subtracted to the analogous experimental conditions. Each sample was prepared in a 50 mM potassium fluoride solution in water (pH 7.4) to a final concentration of 20 μM. The concentrations of each peptide were determined by the UV absorption at 280 nm.

vFLIP/NEMO interaction = molecular target: T1, vFLIP/NEMO interaction (Human herpesvirus 8 type P, UniProt F5HEZ4); test: biochemical; assay type: binding, Kaposi's sarcoma herpesvirus (KSHV)
T1 construct: vFLIP (1-178) and NEMO (150-272) were cloned into pET28a vector; made in house; host or cells: E. coli BL21(DE3)
Method: For the competition assay, two-fold serial dilution of the different NEMO mimetics were prepared in DMSO then diluted in TR-FRET buffer to 5× and added in triplicates to a 384 low volume well plate. His-MBP vFLIP diluted to 5× in TR-FRET buffer (250 nM) was then added to each well and incubated for 15 min at RT. His-Biotinylated NEMO diluted to 5× in TR-FRET buffer (250 nM) was the added to the mixture followed by addition of 5× or 200 nM) streptavidin-XL665 and (5× or 1 nM) of the antibody-tagged fluorophore anti-MBPK labeled with Europium cryptate). The final concentration of the NEMO mimetics ranged from 0.195 μM to 100 μM. Total assay volume was 20 μL. The plate was incubated for 1 h at RT then read using BioTek Synergy NEO. Titration of non-biotinylated NEMO (0.0195-10 μM) was used as a positive control in every run. The effect of the peptides on vFLIP/NEMO interaction was normalized to the control and expressed as percent inhibition (% of control):
%ofcontrol=FRETCHD−FRETbackground/FRETcontrol−FRETbackground where FRET control is the TR-FRET signal in DMSO treated wells (highest signal) and FRET background is TR-FRET signal in wells containing the highest concentration of non-biotinylated NEMO (10 μM) which provides the lowest signal. Normalized TR-FRET data was plotted using Graphpad Prism.
Supplementary Figure 1. Schematic representation of the Time-resolved Fluorescence Energy Transfer (TR-FRET) binding assay. (a) Complexes of recombinant his-MBP vFLIP, biotinylated His-NEMO, Europium cryptate conjugated anti-MBP antibody and strepavidin XL665 were used to generate proximity for a FRET signal between the donor fluorophore Europium cryptate and the acceptor fluorophore strepavidin XL665. The TR-FRET signal was calculated as a ratiometric measurement of the acceptor fluoroscence emission at 665nm over the donor emission at 620nm multiplied by 10000. […] (d) Size exclusion chromatography of NEMO-vFLIP complex indicating a shift to the left in absorbance at 280nm when NEMO binds specifically to vFLIP. […]

BC-3-luc PEL xenograft = test: PEL in vivo xenograft mouse model; set-up: species or system NOD-SCID mice; settings: 20 mg/kg, 9 consecutive days
Method: We injected BC-3-luc PEL cells into the peritoneal cavity of NOD-SCID mice and monitored tumor burden by bioluminescence imaging. […] Although the overall performance of our peptide is highly encouraging, further optimization of delivery and dosing will be essential to achieve more robust responses in vivo.
[…] BC3NFRen-luc#3 were injected intraperitoneally into 4-6 week-old male NOD/SCID mice (Jackson Laboratory, stock 001303). […] We monitored tumor burden or bioluminescence (photons/s/cm^2/steradian) by live imaging and weighing, with the sacrificial endpoint determined to be a net gain or loss of 10% body weight over a week.

T1 sequence (F5HEZ4 1-178): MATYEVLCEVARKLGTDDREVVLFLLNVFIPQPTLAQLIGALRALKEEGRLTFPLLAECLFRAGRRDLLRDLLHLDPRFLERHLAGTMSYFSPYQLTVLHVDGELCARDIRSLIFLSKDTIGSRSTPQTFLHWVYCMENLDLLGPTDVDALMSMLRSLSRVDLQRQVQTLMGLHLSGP

Question: With CC[C@H](C)[C@H](NC(=O)[C@H](CC(C)C)NC(=O)[C@H](CCC(=O)O)NC(=O)[C@H](CC(=O)O)NC(=O)[C@@H](NC(=O)[C@H](CCCCn1cc(COCc2cn(CCCC[C@H](NC(=O)[C@H](CC(C)C)NC(=O)[C@H](CCCNC(=N)N)NC(=O)[C@H](CCCNC(=N)N)NC(=O)[C@@H](NC(=O)[C@H](CCC(=O)NC3CCCCC3)NC(=O)[C@H](CCC(=O)O)NC(=O)[C@H](Cc3c[nH]c4ccccc34)NC(=O)[C@H](CC(C)C)NC(=O)[C@H](CCC(N)=O)NC(=O)[C@H](CCCNC(=N)N)NC(=O)[C@@H](NC(=O)[C@H](Cc3c[nH]c4ccccc34)NC(=O)[C@H](CCC(=O)O)NC(C)=O)[C@@H](C)CC)[C@@H](C)CC)C(N)=O)nn2)nn1)NC(=O)[C@H](CCCNC(=N)N)NC(=O)[C@H](Cc1ccccc1)NC(=O)[C@H](CC(C)C)NC(=O)[C@H](CCCNC(=N)N)NC(=O)[C@H](Cc1c[nH]cn1)NC(=O)[C@@H](NC(=O)[C@H](CCC(=O)O)NC(C)=O)[C@@H](C)CC)[C@@H](C)CC)C(=O)N[C@@H](CCCNC(=N)N)C(N)=O [CHD3^NEMO] as the compound, how does the remaining at 24 h, 60 μM (Serum stability assay) read?
Answer: The remaining at 24 h, 60 μM was roughly 80%.

Question: And the “conformational stability (helix percentage)” value [1]?
Answer: The value was “retain a significant proportion of helix percentage at high temperatures”.

Question: What about the Ki (vFLIP/NEMO interaction) of the same compound?
Answer: Its Ki is 6.9 ± 1.4 µM.

Question: And the toxicity (BC-3-luc PEL xenograft)?
Answer: The toxicity was “without any observed toxicity”.
